Consider 12 molecules from patent US10519152B2, “Compounds and their use in treating cancer” (AstraZeneca AB, priority 2017, dated 2019).

The test has as its target T1, Estrogen Receptor (ERα) in MCF-7 human ductal carcinoma breast cell line (Homo sapiens, UniProt P03372).
T1 construct: endogenous in cells; host or cells: MCF-7
T1 sequence (P03372 1-595): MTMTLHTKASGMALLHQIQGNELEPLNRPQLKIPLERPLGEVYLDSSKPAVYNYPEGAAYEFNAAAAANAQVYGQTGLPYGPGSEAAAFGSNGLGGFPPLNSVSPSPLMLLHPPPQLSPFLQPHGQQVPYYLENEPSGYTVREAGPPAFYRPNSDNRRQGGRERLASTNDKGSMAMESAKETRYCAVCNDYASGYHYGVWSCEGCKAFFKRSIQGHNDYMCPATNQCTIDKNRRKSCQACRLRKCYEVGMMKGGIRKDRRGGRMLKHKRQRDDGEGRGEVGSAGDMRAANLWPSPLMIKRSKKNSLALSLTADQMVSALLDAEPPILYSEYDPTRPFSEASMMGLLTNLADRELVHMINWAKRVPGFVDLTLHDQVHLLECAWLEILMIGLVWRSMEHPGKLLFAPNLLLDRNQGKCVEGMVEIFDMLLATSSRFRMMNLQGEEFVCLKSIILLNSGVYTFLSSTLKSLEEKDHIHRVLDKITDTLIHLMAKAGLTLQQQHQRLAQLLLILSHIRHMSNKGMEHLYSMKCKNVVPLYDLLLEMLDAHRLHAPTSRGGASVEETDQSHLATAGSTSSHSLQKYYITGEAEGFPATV
The experiment in a line: MCF-7 ER degradation assay (cell based immuno-fluorescence). The note with it: MCF-7 cells; for ER degradation ≥ 90% at 0.3 μM: ER degradation by fulvestrant at 0.3 μM is defined as 100%; for DC50: 18-22 hours incubation, 50% reduction of ERα expression, single experiment or average of two or more, read-out: MCF-7 ER degradation IC50. The gist of the method: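 MCF-7 human ductal carcinoma breast cells were seeded at 3.75×10^4 cells per mL (40 μL per well) in 384 well plates with phenol red free DMEM containing 2 mM L-Glutamine and 5% (v/v) Charcoal/Dextran treated foetal calf serum. After overnight culture, compounds were acoustically dispensed, incubated 18-22 hours, then cells were formaldehyde-fixed and immunostained for ERα.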

For the molecule `Cc1ncsc1-c1ccc(CNC(=O)[C@@H]2C[C@@H](O)CN2C(=O)[C@@H](NC(=O)COCC/C=C/CCOc2cc(F)c([C@@H]3c4[nH]c5ccccc5c4C[C@@H](C)N3CC(C)(C)F)c(F)c2)C(C)(C)C)cc1` [Example 22, (2S,4R)-1-((S)-2-(2-(((E)-6-(3,5-Difluoro-4-((1R,3R)-2-(2-fluoro-2-methylpropyl)-3-methyl-2,3,4,9-tetrahydro-1H-pyrido[3,4-b]indol-1-yl)phenoxy)hex-3-en-1-yl)oxy)acetamido)-3,3-dimethylbutanoyl)-4-hydroxy-N-(4-(4-methylthiazol-5-yl)benzyl)pyrrolidine-2-carboxamide], the “ER degradation ≥ 90% at 0.3 μM” value is recorded as “•” and the DC50 was 3 nM.
With `Cc1ncsc1-c1ccc(CNC(=O)[C@@H]2C[C@@H](O)CN2C(=O)[C@@H](NC(=O)COCCC(F)(F)CCOc2cc(F)c([C@@H]3c4[nH]c5ccccc5c4C[C@@H](C)N3CC(C)(C)F)c(F)c2)C(C)(C)C)cc1` [Example 130, (2S,4R)-1-((S)-2-(2-((5-(3,5-Difluoro-4-((1R,3R)-2-(2-fluoro-2-methylpropyl)-3-methyl-2,3,4,9-tetrahydro-1H-pyrido[3,4-b]indol-1-yl)phenoxy)-3,3-difluoropentyl)oxy)acetamido)-3,3-dimethylbutanoyl)-4-hydroxy-N-(4-(4-methylthiazol-5-yl)benzyl)pyrrolidine-2-carboxamide], the “ER degradation ≥ 90% at 0.3 μM” value was “•” and the DC50 was found to be 0.5 nM.
Taken in the same sequence, the figures for `Cc1ncsc1-c1ccc(CNC(=O)[C@@H]2C[C@@H](O)CN2C(=O)[C@@H](NC(=O)CCCOCCCCCCOc2cc(F)c([C@@H]3c4[nH]c5ccccc5c4C[C@@H](C)N3CC(C)(C)F)c(F)c2)C(C)(C)C)cc1` [Example 112, (2S,4R)-1-((S)-2-(4-((6-(3,5-difluoro-4-((1R,3R)-2-(2-fluoro-2-methylpropyl)-3-methyl-2,3,4,9-tetrahydro-1H-pyrido[3,4-b]indol-1-yl)phenoxy)hexyl)oxy)butanamido)-3,3-dimethylbutanoyl)-4-hydroxy-N-(4-(4-methylthiazol-5-yl)benzyl)pyrrolidine-2-carboxamide] were “••” and 2.2 nM.
Regarding `Cc1ncsc1-c1ccc(CNC(=O)[C@@H]2C[C@@H](O)CN2C(=O)[C@@H](NC(=O)CCCCCCCOCCOc2cc(F)c([C@@H]3c4[nH]c5ccccc5c4C[C@@H](C)N3CC(C)(C)F)c(F)c2)C(C)(C)C)cc1` [Example 111, (2S,4R)-1-((S)-2-(8-(2-(3,5-Difluoro-4-((1R,3R)-2-(2-fluoro-2-methylpropyl)-3-methyl-2,3,4,9-tetrahydro-1H-pyrido[3,4-b]indol-1-yl)phenoxy)ethoxy)octanamido)-3,3-dimethylbutanoyl)-4-hydroxy-N-(4-(4-methylthiazol-5-yl)benzyl)pyrrolidine-2-carboxamide], the “ER degradation ≥ 90% at 0.3 μM” value was “•” and the DC50 came to 0.8 nM.
Taken in the same sequence, the figures for `Cc1ncsc1-c1ccc(CNC(=O)[C@@H]2C[C@@H](O)CN2C(=O)[C@@H](NC(=O)C2(OCCCCCCOc3cc(F)c([C@@H]4c5[nH]c6ccccc6c5C[C@@H](C)N4CC(C)(C)F)c(F)c3)CC2)C(C)(C)C)cc1` [Example 118, (2S,4R)-1-((S)-2-(1-((6-(3,5-difluoro-4-((1R,3R)-2-(2-fluoro-2-methylpropyl)-3-methyl-2,3,4,9-tetrahydro-1H-pyrido[3,4-b]indol-1-yl)phenoxy)hexyl)oxy)cyclopropane-1-carboxamido)-3,3-dimethylbutanoyl)-4-hydroxy-N-(4-(4-methylthiazol-5-yl)benzyl)pyrrolidine-2-carboxamide] were “•” and 4.7 nM.
The matching figures for `Cc1ncsc1-c1ccc([C@H](C)NC(=O)[C@@H]2C[C@@H](O)CN2C(=O)[C@@H](NC(=O)C(F)(F)OCCCOCCCOc2cc(F)c([C@@H]3c4[nH]c5ccccc5c4C[C@@H](C)N3CC(C)(C)F)c(F)c2)C(C)(C)C)cc1` [Example 120, (2S,4R)-1-((S)-2-(2-(3-(3-(3,5-Difluoro-4-((1R,3R)-2-(2-fluoro-2-methylpropyl)-3-methyl-2,3,4,9-tetrahydro-1H-pyrido[3,4-b]indol-1-yl)phenoxy)propoxy)propoxy)-2,2-difluoroacetamido)-3,3-dimethylbutanoyl)-4-hydroxy-N—((S)-1-(4-(4-methylthiazol-5-yl)phenyl)ethyl)pyrrolidine-2-carboxamide]: “••” and 1.6 nM.
Consider `Cc1ncsc1-c1ccc([C@H](C)NC(=O)[C@@H]2C[C@@H](O)CN2C(=O)[C@@H](NC(=O)COCCCCCOCCOc2cc(F)c([C@@H]3c4[nH]c5ccccc5c4C[C@@H](C)N3CC(C)(C)F)c(F)c2)C(C)(C)C)cc1` [Example 157, (2S,4R)-1-((S)-2-(2-((5-(2-(3,5-Difluoro-4-((1R,3R)-2-(2-fluoro-2-methylpropyl)-3-methyl-2,3,4,9-tetrahydro-1H-pyrido[3,4-b]indol-1-yl)phenoxy)ethoxy)pentyl)oxy)acetamido)-3,3-dimethylbutanoyl)-4-hydroxy-N—((S)-1-(4-(4-methylthiazol-5-yl)phenyl)ethyl)pyrrolidine-2-carboxamide], for which the “ER degradation ≥ 90% at 0.3 μM” value was “••” and the DC50 came out at 0.4 nM.
The matching figures for `Cc1ncsc1-c1ccc(CNC(=O)[C@@H]2C[C@@H](O)CN2C(=O)[C@@H](NC(=O)CCCCCOCCCCOc2cc(F)c([C@@H]3c4[nH]c5ccccc5c4C[C@@H](C)N3CC(C)(C)F)c(F)c2)C(C)(C)C)cc1` [Example 109, (2S,4R)-1-((S)-2-(6-(4-(3,5-difluoro-4-((1R,3R)-2-(2-fluoro-2-methylpropyl)-3-methyl-2,3,49-tetrahydro-1H-pyrido[3,4-b]indol-1-yl)phenoxy)butoxy)hexanamido)-3,3-dimethylbutanoyl)-4-hydroxy-N-(4-(4-methylthiazol-5-yl)benzyl)pyrrolidine-2-carboxamide]: “••” and 1 nM.
Taken in the same sequence, the figures for `Cc1ncsc1-c1ccc(CNC(=O)[C@@H]2C[C@@H](O)CN2C(=O)[C@@H](NC(=O)COCc2ccc(C(=O)Nc3cc(F)c([C@@H]4c5[nH]c6ccccc6c5C[C@@H](C)N4CC(C)(C)F)c(F)c3)nc2)C(C)(C)C)cc1` [Example 144, N-(3,5-Difluoro-4-((1R,3R)-2-(2-fluoro-2-methylpropyl)-3-methyl-2,3,4,9-tetrahydro-1H-pyrido[3,4-b]indol-1-yl)phenyl)-5-((2-(((S)-1-((2S,4R)-4-hydroxy-2-((4-(4-methylthiazol-5-yl)benzyl)carbamoyl)pyrrolidin-1-yl)-3,3-dimethyl-1-oxobutan-2-yl)amino)-2-oxoethoxy)methyl)picolinamide] were “••” and 0.5 nM.
Taken in the same sequence, the figures for `Cc1ncsc1-c1ccc(CNC(=O)[C@@H]2C[C@@H](O)CN2C(=O)[C@@H](NC(=O)C(F)(F)OCCCCCCOc2cc(F)c([C@@H]3c4[nH]c5ccccc5c4C[C@@H](C)N3CC(C)(C)F)c(F)c2)C(C)(C)C)cc1` [Example 116, (2S,4R)-1-((S)-2-(2-((6-(3,5-Difluoro-4-((1R,3R)-2-(2-fluoro-2-methylpropyl)-3-methyl-2,3,4,9-tetrahydro-1H-pyrido[3,4-b]indol-1-yl)phenoxy)hexyl)oxy)-2,2-difluoroacetamido)-3,3-dimethylbutanoyl)-4-hydroxy-N-(4-(4-methylthiazol-5-yl)benzyl)pyrrolidine-2-carboxamide] were “•” and 5.3 nM.
With `Cc1ncsc1-c1ccc([C@H](C)NC(=O)[C@@H]2C[C@@H](O)CN2C(=O)[C@@H](NC(=O)COCCOCCCCCOc2cc(F)c([C@@H]3c4[nH]c5ccccc5c4C[C@@H](C)N3CC(F)(F)F)c(F)c2)C(C)(C)C)cc1` [Example 140, (2S,4R)-1-((S)-2-(2-(2-((5-(3,5-Difluoro-4-((1R,3R)-3-methyl-2-(2,2,2-trifluoroethyl)-2,3,4,9-tetrahydro-1H-pyrido[3,4-b]indol-1-yl)phenoxy)pentyl)oxy)ethoxy)acetamido)-3,3-dimethylbutanoyl)-4-hydroxy-N—((S)-1-(4-(4-methylthiazol-5-yl)phenyl)ethyl)pyrrolidine-2-carboxamide], the “ER degradation ≥ 90% at 0.3 μM” value was “••” and the DC50 worked out at 0.6 nM.
Take `Cc1ncsc1-c1ccc(CNC(=O)[C@@H]2C[C@@H](O)CN2C(=O)[C@@H](NC(=O)COCCCCCCCCOc2ccc([C@@H]3c4[nH]c5ccccc5c4C[C@@H](C)N3CC(F)F)nc2)C(C)(C)C)cc1` [Example 13, (2S,4R)-1-((S)-2-(2-((8-((6-((1S,3R)-2-(2,2-Difluoroethyl)-3-methyl-2,3,4,9-tetrahydro-1H-pyrido[3,4-b]indol-1-yl)pyridin-3-yl)oxy)octyl)oxy)acetamido)-3,3-dimethylbutanoyl)-4-hydroxy-N-(4-(4-methylthiazol-5-yl)benzyl)pyrrolidine-2-carboxamide]: the “ER degradation ≥ 90% at 0.3 μM” value is recorded as “•” and the DC50 amounted to 3.7 nM.
